Among the data in US12390437B2, “Itaconic acid derivatives and uses thereof intreating an inflammatory disease or a disease associated with an undesirable immune response” (Sitryx Therapeutics Limited, priority 2019, dated 2025) are IC50 and concentration values, retold here.

The test system of series [1] is IL-1β cytokine output from THP-1s. As to the kind of experiment: THP-1 AlphaLISA IL-1β cytokine assay. Format: cell-based, human. Conditions: Homo sapiens, read-out: IL-1β (IC50). A digest of the protocol:
(§1)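 PMA-differentiated (72 h) THP-1 cells pretreated 30 min with compound, LPS-stimulated 24 h, then nigericin 1 h at 37 °C. Supernatant IL-1β and IL-6 by AlphaLISA; % inhibition normalised to ±LPS controls, IC50 from concentration-response curves.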
In general terms: Alpha assays give light when donor and acceptor beads are brought close together.

In series [2] the test system is IL-6 cytokine output from THP-1s. As to the kind of experiment: THP-1 AlphaLISA IL-6 cytokine assay. Type of series: cell-based, human. The conditions noted are these: Homo sapiens; PMA-differentiated THP-1 cells, LPS 24 hr then Nigericin 1 hour. A digest of the protocol: as §1
Series [3] is described as follows: Mouse pharmacokinetic study, oral administration. Format: in vivo. The conditions noted are these: male, C57BL/6, mouse, plasma, po, 100 mg/kg, plasma, male C57BL/6 mice, oral gavage 100 mg/kg; for concentration at 0.25 h: read-out: Parent compound concentrations following oral administration, Time 0.25 h; for concentration at 0.5 h: read-out: Parent compound concentrations following oral administration, Time 0.5 h; for concentration at 1 h: read-out: Parent compound concentrations following oral administration, Time 1 h; for concentration at 2 h: read-out: Parent compound concentrations following oral administration, Time 2 h; for concentration at 4 h: read-out: Parent compound concentrations following oral administration, Time 4 h; for concentration at 8 h: read-out: Parent compound concentrations following oral administration, Time 8 h; for concentration at 24 h: read-out: Parent compound concentrations following oral administration, Time 24 h; for concentration at 0.083 h: read-out: Parent compound concentrations following oral administration, Time 0.083 h; for concentration at 6 h: read-out: Parent compound concentrations following oral administration, Time 6 h. The method in brief: (§2)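 Oral arm: 100 mg/kg gavage in 5% DMSO with 0.5% HPMC/0.1% Tween 80, blood from 5 min to 24 h. Intravenous arm: 10 mg/kg tail-vein injection in 10% DMSO with HP-β-CD, blood from 3 min to 8 h. Male C57BL/6 mice; LC-MS/MS on plasma.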

Series [4] can be described thus: Mouse pharmacokinetic study, intravenous dosing. Type of series: in vivo. Conditions: male, C57BL/6, mouse, iv, plasma, 10 mg/kg i.v., read-out: Parent compound concentration following intravenous administration. A digest of the protocol:
as §2

[5] abbreviates: THP-1, PMA-differentiated THP-1 cells, LPS 24 hr then Nigericin 1 hour.

Where a name gives a salt, the structure may show the parent alone. Read-outs that look alike come from different tables or passages of the source.

Turning to `C=C(CC(=O)OCCCCCCCC)C(=O)OCCC#N` [Example 1, 1-(2-cyanoethyl) 4-octyl 2-methylenesuccinate], the values for the IC50 in series [1] (setting [5]) and in series [2] were 9.3 µM and 6 µM, respectively.
In the case of `C=C(CC(=O)OC1CCCCC1)C(=O)OCC(=O)O` [Example 91, 2-((4-(cyclohexyloxy)-2-methylene-4-oxobutanoyl)oxy)acetic acid], the half-maximal inhibitory concentration (IC50) in series [1] (setting [5]) stood at 48.1 µM. In addition, in series [2], the IC50 stood at 33.8 µM. Besides, in series [3], the concentration at 0.25 h was 8860 ng/mL, the concentration at 0.5 h is 6240 ng/mL, the concentration at 1 h turned out to be 1920 ng/mL and the concentration at 2 h was determined as 450 ng/mL. In addition, in series [3], the concentration at 4 h amounted to 33 ng/mL, the concentration at 8 h turned out to be 19 ng/mL and the concentration at 24 h came to 13 ng/mL.
As for `C=C(CC(=O)OCCCCCCCC)C(=O)OCCN1C(=O)CCC1=O` [Example 9, 1-(2-(2,5-dioxopyrrolidin-1-yl)ethyl) 4-octyl 2-methylenesuccinate], the figures for the IC50 in series [1] (setting [5]) and in series [2] were 4.7 µM and 2.2 µM, respectively.
Regarding `C=C(CC(=O)OCCCCCCCC)C(=O)OCCC(=O)O` [Example 80, 3-((2-methylene-4-(octyloxy)-4-oxobutanoyl)oxy)propanoic Acid], the IC50 in series [1] (setting [5]) was determined as 9.6 µM. The same molecule registered an IC50 in series [2] of 5.3 µM. In addition, in series [3], the concentration at 0.25 h is 850 ng/mL, the concentration at 0.5 h is 1150 ng/mL, the concentration at 1 h is 715 ng/mL and the concentration at 2 h stood at 173 ng/mL. In addition, in series [3], the concentration at 4 h stood at 67 ng/mL, the concentration at 8 h was less than 1.5 ng/mL and the concentration at 24 h was less than 1.5 ng/mL.
For the molecule `C=C(CC(=O)OCCCCCCCC)C(=O)OCCS(C)(=O)=O` [Example 2, 1-(2-(methylsulfonyl)ethyl) 4-octyl 2-methylenesuccinate], the figures for the IC50 in series [1] (setting [5]) and in series [2] were 5 µM and 2.9 µM, respectively.
In the case of `C=C(CC(=O)OCCCCCCCC)C(=O)OCCC(F)(F)F` [Example 3, 4-octyl 1-(3,3,3-trifluoropropyl) 2-methylenesuccinate], the IC50 in series [1] (setting [5]) is 15.6 µM; in series [2], 56.2 µM.
Regarding `C=C(CC(=O)O[C@@H](C)CCCCCC)C(=O)OCCc1nnn[nH]1` [Example 129, (S)-1-(2-(1H-tetrazol-5-yl)ethyl) 4-octan-2-yl 2-methylenesuccinate], the IC50 in series [1] (setting [5]) came out at 5.5 µM. For the same molecule, in series [4], the concentration at 0.05 h worked out at 2920 ng/mL, the concentration at 0.133 h was found to be 872 ng/mL, the concentration at 0.25 h turned out to be 309 ng/mL and the concentration at 0.5 h amounted to 96 ng/mL. Moreover, in series [4], the concentration at 1 h was found to be 7.7 ng/mL, the concentration at 2 h is less than 1.6 ng/mL, the concentration at 4 h was less than 1.6 ng/mL and the concentration at 6 h was less than 1.6 ng/mL. In series [4], the concentration at 8 h was less than 1.6 ng/mL. In series [3], the concentration at 0.083 h turned out to be 305 ng/mL, the concentration at 0.25 h was 1030 ng/mL, the concentration at 0.5 h was determined as 109 ng/mL and the concentration at 1 h is 255 ng/mL. Further, in series [3], the concentration at 2 h turned out to be 61 ng/mL, the concentration at 4 h was determined as 13 ng/mL, the concentration at 6 h stood at 16 ng/mL and the concentration at 8 h was determined as 11 ng/mL. The concentration at 24 h in series [3] turned out to be 3.5 ng/mL.
For the molecule `C=C(CC(=O)OC1CCCCC1)C(=O)OCCC(=O)O` [Example 87, 3-((4-(cyclohexyloxy)-2-methylene-4-oxobutanoyl)oxy)propanoic acid], the half-inhibitory concentration (IC50) in series [1] (setting [5]) was determined as 28.1 µM. In addition, the IC50 in series [2] came out at 100 µM. In series [3], the concentration at 0.25 h came to 35300 ng/mL, the concentration at 0.5 h worked out at 15900 ng/mL, the concentration at 1 h amounted to 8520 ng/mL and the concentration at 2 h stood at 1460 ng/mL. Also, in series [3], the concentration at 4 h came to 198 ng/mL, the concentration at 8 h was determined as 31 ng/mL and the concentration at 24 h is less than 14 ng/mL.
Turning to `C=C(CC(=O)OC(C)(C)CCCCC)C(=O)OCC(=O)O` [Example 193, 2-((2-methylene-4-((2-methylheptan-2-yl)oxy)-4-oxobutanoyl)oxy)acetic acid], the IC50 in series [1] (setting [5]) worked out at 17.6 µM. For the same molecule, in series [4], the concentration at 0.05 h is 28800 ng/mL, the concentration at 0.133 h was found to be 10700 ng/mL, the concentration at 0.25 h was found to be 4040 ng/mL and the concentration at 0.5 h was determined as 1450 ng/mL. In addition, in series [4], the concentration at 1 h stood at 134 ng/mL, the concentration at 2 h came out at 16 ng/mL, the concentration at 4 h is 4.1 ng/mL and the concentration at 6 h is less than 4 ng/mL. Besides, the concentration at 8 h in series [4] is less than 4 ng/mL. Further, in series [3], the concentration at 0.083 h turned out to be 52900 ng/mL, the concentration at 0.25 h was 45600 ng/mL, the concentration at 0.5 h was found to be 31500 ng/mL and the concentration at 1 h is 8930 ng/mL. In series [3], the concentration at 2 h came out at 2120 ng/mL, the concentration at 4 h came to 920 ng/mL, the concentration at 6 h was 55 ng/mL and the concentration at 8 h came to 19 ng/mL. Further, the concentration at 24 h in series [3] is 5.6 ng/mL.
In the case of `C=C(CC(=O)OCCCCCCCC)C(=O)OCC(=O)O` [Example 49, 2-((2-methylene-4-(octyloxy)-4-oxobutanoyl)oxy)acetic acid], in series [1] (setting [5]), the IC50 stood at 7.2 µM. Besides, the IC50 in series [2] amounted to 5.5 µM. For the same molecule, in series [3], the concentration at 0.25 h was 536 ng/mL, the concentration at 0.5 h turned out to be 843 ng/mL, the concentration at 1 h came to 344 ng/mL and the concentration at 2 h was 111 ng/mL. Also, in series [3], the concentration at 4 h amounted to 12 ng/mL, the concentration at 8 h turned out to be 4.5 ng/mL and the concentration at 24 h is less than 1.5 ng/mL.
On to `COC(=O)/C=C/C(=O)OC` [dimethyl fumarate, reference compound], for which the IC50 in series [1] (setting [5]) turned out to be 14.4 µM; in series [1] (THP-1, Table 10, assay of Biological Example 1 (THP-1)) it was 14.4 µM; in series [2], 9.3 µM.
Take `C=C(CC(=O)OCCCCCCCC)C(=O)OC1COC1` [Example 4, 4-octyl 1-(oxetan-3-yl) 2-methylenesuccinate]: the IC50 in series [1] (setting [5]) was found to be 9.3 µM; in series [2] it was 3.6 µM.
On to `C=C(CC(=O)OC1CCCCCCC1)C(=O)OCc1nnn[nH]1` [Example 134, 1-((1H-tetrazol-5-yl)methyl) 4-cyclooctyl 2-methylenesuccinate], for which, in series [1] (setting [5]), the IC50 came to 9.8 µM. Besides, in series [4], the concentration at 0.05 h was 31600 ng/mL, the concentration at 0.133 h came out at 7760 ng/mL, the concentration at 0.25 h was determined as 2890 ng/mL and the concentration at 0.5 h came to 4300 ng/mL. Besides, in series [4], the concentration at 1 h came out at 74 ng/mL, the concentration at 2 h came to 12 ng/mL, the concentration at 4 h amounted to 11 ng/mL and the concentration at 6 h was 1.4 ng/mL. For the same molecule, the concentration at 8 h in series [4] worked out at 1.7 ng/mL. Moreover, in series [3], the concentration at 0.083 h stood at 17500 ng/mL, the concentration at 0.25 h stood at 3500 ng/mL, the concentration at 0.5 h came to 7970 ng/mL and the concentration at 1 h was 1980 ng/mL. Besides, in series [3], the concentration at 2 h came out at 856 ng/mL, the concentration at 4 h was determined as 636 ng/mL, the concentration at 6 h came to 94 ng/mL and the concentration at 8 h turned out to be 62 ng/mL. For the same molecule, the concentration at 24 h in series [3] was determined as 7 ng/mL.

What is called IC50 is the concentration that inhibits the measured activity by half.
